Where a chain is given by its changes, count along the chain named.
Columns and labels:
Assay type in all cases: biochemical
[1] = biological target: T1, TG2 (transglutaminase-2, transglutaminase type 2) (Homo sapiens, UniProt P21980)
T1 sequence (P21980 1-687): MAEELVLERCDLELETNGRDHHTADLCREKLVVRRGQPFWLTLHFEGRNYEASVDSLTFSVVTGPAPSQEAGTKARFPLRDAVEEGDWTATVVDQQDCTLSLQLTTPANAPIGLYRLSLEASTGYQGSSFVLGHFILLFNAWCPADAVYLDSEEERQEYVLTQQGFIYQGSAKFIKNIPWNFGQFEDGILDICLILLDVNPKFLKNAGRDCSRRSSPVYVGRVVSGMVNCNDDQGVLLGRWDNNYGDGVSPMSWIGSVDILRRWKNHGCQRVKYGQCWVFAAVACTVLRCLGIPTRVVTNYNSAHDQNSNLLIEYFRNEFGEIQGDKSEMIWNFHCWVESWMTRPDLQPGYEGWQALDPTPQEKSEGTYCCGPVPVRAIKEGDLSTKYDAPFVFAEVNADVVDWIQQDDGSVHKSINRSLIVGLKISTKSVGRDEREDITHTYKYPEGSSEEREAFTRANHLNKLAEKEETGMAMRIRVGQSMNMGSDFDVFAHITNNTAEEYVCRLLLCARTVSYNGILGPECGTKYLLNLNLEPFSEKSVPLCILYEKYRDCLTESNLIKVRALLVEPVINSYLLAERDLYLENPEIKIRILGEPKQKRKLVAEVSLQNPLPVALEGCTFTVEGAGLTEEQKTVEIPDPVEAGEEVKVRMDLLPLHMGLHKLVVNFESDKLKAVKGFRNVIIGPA

[2] = biological target: T2, TG2 (transglutaminase-2, transglutaminase type 2) (Homo sapiens, UniProt P21980, K265S)
T2 sequence (P21980 1-687 K265S): T1 sequence (P21980 1-687) with K265S

[3] = biological target: T3, TG2 (transglutaminase-2, transglutaminase type 2) (Homo sapiens, UniProt P21980, R263S)
T3 sequence (P21980 1-687 R263S): T1 sequence (P21980 1-687) with R263S

[4] = biological target: T4, TG2 (transglutaminase-2, transglutaminase type 2) (Homo sapiens, UniProt P21980, R262S)
T4 sequence (P21980 1-687 R262S): T1 sequence (P21980 1-687) with R262S

## Nc1nc2c(ncn2[C@@H]2O[C@H](COP(=O)(O)OP(=O)(O)OP(=O)(O)O)[C@@H](O)[C@H]2O)c(=O)[nH]1 [GTP]
[1]
  IC50: 142 ± 24 µM
[2]
  IC50: 182 ± 17 µM
[3]
  IC50: 79 ± 15 µM
[4]
  IC50: 23 ± 5 µM

Source: paper PMC3365763 (The Journal of Biological Chemistry, 2012)
